Columns and labels:
[1] = biological target: Mitogen-activated protein kinase 14 (Homo sapiens, UniProt Q16539); experiment: Inhibition of p38alpha
[2] = Hepatocyte microsomal extraction ratio in human; settings: hepatic microsomes
Monocyte = experiment: Inhibition of LPS-induced TNFalpha production in human monocytes; format: functional, cell-based
Homo sapiens = organism: Homo sapiens; experiment: Inhibition of LPS-induced TNFalpha production in human whole blood; format: functional, organism-based
[3] = Hepatocyte extraction ratio in human; format: ADME, cell-based; settings: hepatocytes

Mitogen-activated protein kinase 14, sequence (Q16539 whole entry): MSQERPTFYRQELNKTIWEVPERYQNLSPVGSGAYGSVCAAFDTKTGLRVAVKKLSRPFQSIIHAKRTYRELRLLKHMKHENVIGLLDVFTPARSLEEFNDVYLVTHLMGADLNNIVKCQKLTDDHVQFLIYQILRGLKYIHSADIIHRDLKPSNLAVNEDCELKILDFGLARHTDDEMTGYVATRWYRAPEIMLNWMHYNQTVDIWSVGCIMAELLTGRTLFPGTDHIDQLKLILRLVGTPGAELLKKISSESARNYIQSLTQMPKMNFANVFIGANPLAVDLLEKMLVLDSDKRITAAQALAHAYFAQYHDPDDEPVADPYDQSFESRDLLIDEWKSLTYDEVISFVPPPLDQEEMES

SMILES	IC50 [1] [nM]	hepatic extraction ratio [2]	IC50 (Monocyte) [nM]	IC50 (Homo sapiens) [nM]	hepatic extraction ratio [3]
CC(C)c1nnc2ccc(-c3ocnc3-c3c(F)cc(F)cc3F)cn12	7.2	< 0.3	60	650	–
CC(C)c1nnc2ccc(-c3ocnc3-c3ccc(Cl)c(Cl)c3)cn12	26.4	–	148	–	–
CC(C)c1nnc2ccc(-c3ocnc3-c3ccc(Cl)cc3Cl)cn12	8.3	< 0.3	30	–	–
Fc1ccc(-c2ncoc2-c2ccc3nnc(C4CCC4)n3c2)cc1	17.7	–	49	–	> 0.5
CCN(C)c1nnc2ccc(-c3ocnc3-c3ccc(F)cc3)cn12	4.7	–	34.6	1550	–
CC(C)c1nnc2ccc(-c3ocnc3-c3c(F)cccc3F)cn12	14.6	< 0.3	71.1	–	–
CC(C)c1nnc2ccc(-c3ocnc3-c3cc(Cl)ccc3F)cn12	5.1	–	10	190	–
CC(C)c1nnc2ccc(-c3ocnc3-c3ccccc3Cl)cn12	3	–	57.4	937	–
Fc1cc(F)c(-c2ncoc2-c2ccc3nnc(C4CC4)n3c2)cc1F	7.8	< 0.3	40	565	–
CC(C)Cc1nnc2ccc(-c3ocnc3-c3ccc(F)cc3)cn12	8.8	–	70	–	–
CC(C)(C)c1nnc2ccc(-c3ocnc3-c3cc(F)ccc3F)cn12	8.8	< 0.3	14.1	220	–
FC(F)(F)Cc1nnc2ccc(-c3ocnc3-c3ccccc3)cn12	83.2	–	915	–	> 0.5
CC(C)Nc1nnc2ccc(-c3ocnc3-c3ccc(F)cc3)cn12	5.5	–	31.6	–	–
Fc1ccc(-c2ncoc2-c2ccc3nnc(C4CC4)n3c2)c(F)c1	3.5	–	45.8	910	–
Fc1ccc(-c2ncoc2-c2ccc3nnc(N4CCOCC4)n3c2)cc1	11.8	< 0.3	1440	–	–
FC(F)c1nnc2ccc(-c3ocnc3-c3ccccc3)cn12	544	–	–	–	–
CC1(c2nnc3ccc(-c4ocnc4-c4cc(F)c(F)cc4F)cn23)CCC1	2.5	–	10	90	–
Cc1ccc(F)c(-c2ncoc2-c2ccc3nnc(C(C)C)n3c2)c1	4.3	–	10	–	> 0.5
CC(C)c1nnc2ccc(-c3ocnc3-c3cc(F)c(F)c(F)c3)cn12	4.1	< 0.3	480	–	–
CC(C)Oc1nnc2ccc(-c3ocnc3-c3ccc(F)cc3)cn12	17.9	–	470	–	–
c1ccc(-c2ncoc2-c2ccc3nnc(-c4ccno4)n3c2)cc1	285	–	> 2000	–	–
CCc1nnc2ccc(-c3ocnc3-c3ccc(F)cc3)cn12	21.6	–	630	–	–
CC(C)c1nnc2ccc(-c3ocnc3-c3cc(F)c(F)cc3Cl)cn12	5.6	< 0.3	54.8	–	–
Fc1ccc(F)c(-c2ncoc2-c2ccc3nnc(C4CC4)n3c2)c1	24	< 0.3	31.6	1400	–
Fc1ccc(F)c(-c2ncoc2-c2ccc3nnc(C4CCC4)n3c2)c1	9.7	–	60	–	–
CCc1nnc2ccc(-c3ocnc3-c3ccccc3)cn12	54.5	–	672	–	> 0.5
CC1(c2nnc3ccc(-c4ocnc4-c4cc(F)c(F)cc4F)cn23)CC1	2.3	< 0.3	28.3	263	–

SMILES	IC50 [1] [nM]	hepatic extraction ratio [2]	IC50 (Monocyte) [nM]	IC50 (Homo sapiens) [nM]	hepatic extraction ratio [3]
Fc1ccc(-c2ncoc2-c2ccc3nnc(Cc4ccccc4)n3c2)cc1	19.9	–	> 1000	–	–
CC1(c2nnc3ccc(-c4ocnc4-c4cc(F)ccc4F)cn23)CC1	3	< 0.3	45.8	385	–
c1ccc(-c2ncoc2-c2ccc3nnc(C4CCC4)n3c2)cc1	16.6	–	69.3	–	–
CC(C)(O)c1nnc2ccc(-c3ocnc3-c3cc(F)ccc3F)cn12	25	–	200	1400	–
Fc1cc(F)c(-c2ncoc2-c2ccc3nnc(C4CCC4)n3c2)cc1F	9.1	–	50	353	–
CCN(C)c1nnc2ccc(-c3ocnc3-c3ccccc3)cn12	9.2	–	80	–	> 0.5
Cc1cccc(-c2ncoc2-c2ccc3nnc(C(C)C)n3c2)c1	18.3	–	24.5	–	–
CC(C)c1nnc2ccc(-c3ocnc3-c3ccc(Cl)cc3)cn12	17.7	–	70	–	–
CC(C)c1nnc2ccc(-c3ocnc3-c3cccc(Cl)c3Cl)cn12	14.5	< 0.3	57.4	–	–
CC(C)c1nnc2ccc(-c3ocnc3-c3ccc(F)c(F)c3)cn12	22.3	–	49	–	–
COc1ccccc1-c1nnc2ccc(-c3ocnc3-c3ccc(F)cc3)cn12	0.4	–	10	873	–
CC(C)c1nnc2ccc(-c3ocnc3-c3cc(F)c(Cl)cc3F)cn12	24.5	< 0.3	60	–	–
CCCNc1nnc2ccc(-c3ocnc3-c3ccc(F)cc3)cn12	198	–	–	–	–
CC(C)c1nnc2ccc(-c3ocnc3-c3cc(F)cc(F)c3F)cn12	83.3	< 0.3	490	–	–
Fc1ccc(-c2ncoc2-c2ccc3nnc(C4CCC4)n3c2)c(F)c1	3.75	–	40	–	> 0.5
CC(C)(C)c1nnc2ccc(-c3ocnc3-c3ccc(F)cc3)cn12	3.5	< 0.3	38.7	470	–
CC(C)c1nnc2ccc(-c3ocnc3-c3cccc(F)c3)cn12	37.8	–	135	–	> 0.5
CC1(c2nnc3ccc(-c4ocnc4-c4ccc(F)cc4F)cn23)CCC1	1.1	–	10	77	–
CC(C)c1nnc2ccc(-c3ocnc3-c3ccc(Cl)c(F)c3)cn12	43.2	–	266	–	–
CCOc1nnc2ccc(-c3ocnc3-c3ccc(F)cc3)cn12	55.5	–	360	–	–
CC(C)c1nnc2ccc(-c3ocnc3-c3ccc(F)c(F)c3F)cn12	11.1	–	57.4	–	–
CC1(c2nnc3ccc(-c4ocnc4-c4ccc(F)cc4)cn23)CCC1	14	–	40	–	> 0.5
Fc1ccc(-c2ncoc2-c2ccc3nncn3c2)cc1	19.5	< 0.3	> 5000	–	–
c1ccc(-c2ncoc2-c2ccc3nnc(C4CC4)n3c2)cc1	47.2	–	150	–	> 0.5
CN(C)c1nnc2ccc(-c3ocnc3-c3ccc(F)cc3)cn12	15.3	–	165	–	> 0.5
CC1(c2nnc3ccc(-c4ocnc4-c4cc(F)ccc4F)cn23)CCC1	1.5	–	10	–	–
CC(C)c1nnc2ccc(-c3ocnc3-c3ccc(F)c(Br)c3)cn12	8	< 0.3	122	–	–

— ChEMBL document CHEMBL1145312, “Structure-activity relationships of triazolopyridine oxazole p38 inhibitors: identification of candidates for clinical development” (Bioorg Med Chem Lett, 2006)
